The values below come from PMC8382989 (Biochemistry, 2013).

Series [1] deals with E. coli RNR subunit α, catalytic body alone (E-CB) (Escherichia coli, UniProt P00452). The series can be described thus: fluorescence anisotropy titration. The series is classed as binding. On the technique in general: In fluorescence polarisation assays a small probe gives low polarisation when free and higher when bound to something large.
In series [2] the target is T1, human RNR subunit α, N-terminal domain alone (H-NTD) (Homo sapiens, UniProt P23921).
T1 sequence (P23921 1-91): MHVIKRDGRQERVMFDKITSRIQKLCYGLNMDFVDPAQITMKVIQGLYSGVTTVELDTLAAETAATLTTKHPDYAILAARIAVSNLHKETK
The series is described as follows: fluorescence anisotropy titration. The series is classed as binding.

Series [3] addresses T2, human RNR subunit α (H-α) (Homo sapiens, UniProt P23921).
T2 sequence (P23921 1-792): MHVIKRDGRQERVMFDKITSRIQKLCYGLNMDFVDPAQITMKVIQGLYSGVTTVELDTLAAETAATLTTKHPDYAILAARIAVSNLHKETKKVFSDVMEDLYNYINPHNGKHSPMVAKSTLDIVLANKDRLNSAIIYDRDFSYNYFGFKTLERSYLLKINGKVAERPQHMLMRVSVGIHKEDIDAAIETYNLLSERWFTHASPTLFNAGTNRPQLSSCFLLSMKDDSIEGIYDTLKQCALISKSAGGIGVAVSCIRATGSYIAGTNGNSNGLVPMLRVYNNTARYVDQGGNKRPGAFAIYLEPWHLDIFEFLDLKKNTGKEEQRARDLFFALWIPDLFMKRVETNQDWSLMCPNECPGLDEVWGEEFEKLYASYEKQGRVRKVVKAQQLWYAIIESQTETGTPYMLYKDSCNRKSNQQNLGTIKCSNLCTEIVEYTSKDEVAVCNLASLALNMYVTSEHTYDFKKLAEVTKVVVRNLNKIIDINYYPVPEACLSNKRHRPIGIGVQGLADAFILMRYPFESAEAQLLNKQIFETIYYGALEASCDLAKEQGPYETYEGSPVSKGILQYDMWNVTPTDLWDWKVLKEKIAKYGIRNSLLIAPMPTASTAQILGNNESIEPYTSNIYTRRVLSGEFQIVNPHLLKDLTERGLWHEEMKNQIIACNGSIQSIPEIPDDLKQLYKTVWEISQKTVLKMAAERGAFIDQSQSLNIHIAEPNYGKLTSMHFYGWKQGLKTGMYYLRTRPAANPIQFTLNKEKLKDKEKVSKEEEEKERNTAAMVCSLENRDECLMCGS
The series can be described thus: CDP reductase activity titration with dATP. The series is classed as biochemical.

Series [4] deals with the molecule itself. The series can be described thus: SEC.
Series [5] deals with the molecule itself. The series can be described thus: SEC. The source holds these as a separate data set.

Where two headings read alike, the source gives them in different places.

As usually defined, the Kd is the equilibrium constant for the complex coming apart. Read a low Kd as higher affinity. The EC50 is the concentration needed to bring the measured effect to its halfway point. One may read the stoichiometry N as a count of units in the complex or per binding partner.

Sequence of E. coli RNR subunit α, catalytic body alone (E-CB) (P00452 94-761): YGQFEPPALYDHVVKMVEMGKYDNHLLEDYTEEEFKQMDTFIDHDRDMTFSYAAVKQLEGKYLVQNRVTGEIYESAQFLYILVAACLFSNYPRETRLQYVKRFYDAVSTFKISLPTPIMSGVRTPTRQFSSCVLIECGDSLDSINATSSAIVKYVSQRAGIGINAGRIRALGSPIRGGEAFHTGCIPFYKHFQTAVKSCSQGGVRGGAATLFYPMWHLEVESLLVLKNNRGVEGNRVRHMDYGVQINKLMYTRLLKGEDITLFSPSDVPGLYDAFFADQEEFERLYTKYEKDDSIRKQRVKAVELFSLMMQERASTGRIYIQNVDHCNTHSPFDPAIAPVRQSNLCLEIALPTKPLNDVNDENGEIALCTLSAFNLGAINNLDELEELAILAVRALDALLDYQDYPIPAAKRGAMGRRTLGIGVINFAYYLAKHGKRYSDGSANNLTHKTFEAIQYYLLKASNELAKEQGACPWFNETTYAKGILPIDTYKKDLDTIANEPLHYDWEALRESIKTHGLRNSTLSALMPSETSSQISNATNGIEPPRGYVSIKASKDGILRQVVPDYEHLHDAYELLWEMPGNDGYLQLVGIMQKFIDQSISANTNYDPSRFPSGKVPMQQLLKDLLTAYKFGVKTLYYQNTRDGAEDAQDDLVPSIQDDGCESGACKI

Regarding Texas Red-5-dATP, the Kd in series [1] was found to be 5.3 ± 0.3 µM; in series [2] it was 153 ± 19 µM.

As for `Nc1ncnc2c1ncn2[C@H]1C[C@H](O)[C@@H](COP(=O)(O)OP(=O)(O)OP(=O)(O)O)O1` [dATP], in series [3], the EC50 stood at 33 ± 7 µM.

B1: E. coli ribonucleotide reductase subunit β (enzyme)
chain: AYTTFSQTKNDQLKEPMFFGQPVNVARYDQQKYDIFEKLIEKQLSFFWRPEEVDVSRDRIDYQALPEHEKHIFISNLKYQTLLDSIQGRSPNVALLPLISIPELETWVETWAFSETIHSRSYTHIIRNIVNDPSVVFDDIVTNEQIQKRAEGISSYYDELIEMTSYWHLLGEGTHTVNGKTVTVSLRELKKKLYLCLMSVNALEAIRFYVSFACSFAFAERELMEGNAKIIRLIARDEALHLTGTQHMLNLLRSGADDPEMAEIAEECKQECYDLFVQAAQQEKDWADYLFRDGSMIGLNKDILCQYVEYITNIRMQAVGLDLPFQTRSNPIPWINTWLVSDNVQVAPQEVEVSSYLVGQIDSEVDTDDLSNFQL
As to B1, in the series “SEC [4]”, the “stoichiometry N” value was determined as 2.

B2: human ribonucleotide reductase subunit α (enzyme, UniProt P23921 1-792, looked up)
chain: MHVIKRDGRQERVMFDKITSRIQKLCYGLNMDFVDPAQITMKVIQGLYSGVTTVELDTLAAETAATLTTKHPDYAILAARIAVSNLHKETKKVFSDVMEDLYNYINPHNGKHSPMVAKSTLDIVLANKDRLNSAIIYDRDFSYNYFGFKTLERSYLLKINGKVAERPQHMLMRVSVGIHKEDIDAAIETYNLLSERWFTHASPTLFNAGTNRPQLSSCFLLSMKDDSIEGIYDTLKQCALISKSAGGIGVAVSCIRATGSYIAGTNGNSNGLVPMLRVYNNTARYVDQGGNKRPGAFAIYLEPWHLDIFEFLDLKKNTGKEEQRARDLFFALWIPDLFMKRVETNQDWSLMCPNECPGLDEVWGEEFEKLYASYEKQGRVRKVVKAQQLWYAIIESQTETGTPYMLYKDSCNRKSNQQNLGTIKCSNLCTEIVEYTSKDEVAVCNLASLALNMYVTSEHTYDFKKLAEVTKVVVRNLNKIIDINYYPVPEACLSNKRHRPIGIGVQGLADAFILMRYPFESAEAQLLNKQIFETIYYGALEASCDLAKEQGPYETYEGSPVSKGILQYDMWNVTPTDLWDWKVLKEKIAKYGIRNSLLIAPMPTASTAQILGNNESIEPYTSNIYTRRVLSGEFQIVNPHLLKDLTERGLWHEEMKNQIIACNGSIQSIPEIPDDLKQLYKTVWEISQKTVLKMAAERGAFIDQSQSLNIHIAEPNYGKLTSMHFYGWKQGLKTGMYYLRTRPAANPIQFTLNKEKLKDKEKVSKEEEEKERNTAAMVCSLENRDECLMCGS
Consider B2, for which the “stoichiometry N” value in “SEC [5]” was 6.

B3: human D57N-α (point mutant of human RNR subunit α) (enzyme, UniProt P23921 1-792, looked up)
chain: MHVIKRDGRQERVMFDKITSRIQKLCYGLNMDFVDPAQITMKVIQGLYSGVTTVELNTLAAETAATLTTKHPDYAILAARIAVSNLHKETKKVFSDVMEDLYNYINPHNGKHSPMVAKSTLDIVLANKDRLNSAIIYDRDFSYNYFGFKTLERSYLLKINGKVAERPQHMLMRVSVGIHKEDIDAAIETYNLLSERWFTHASPTLFNAGTNRPQLSSCFLLSMKDDSIEGIYDTLKQCALISKSAGGIGVAVSCIRATGSYIAGTNGNSNGLVPMLRVYNNTARYVDQGGNKRPGAFAIYLEPWHLDIFEFLDLKKNTGKEEQRARDLFFALWIPDLFMKRVETNQDWSLMCPNECPGLDEVWGEEFEKLYASYEKQGRVRKVVKAQQLWYAIIESQTETGTPYMLYKDSCNRKSNQQNLGTIKCSNLCTEIVEYTSKDEVAVCNLASLALNMYVTSEHTYDFKKLAEVTKVVVRNLNKIIDINYYPVPEACLSNKRHRPIGIGVQGLADAFILMRYPFESAEAQLLNKQIFETIYYGALEASCDLAKEQGPYETYEGSPVSKGILQYDMWNVTPTDLWDWKVLKEKIAKYGIRNSLLIAPMPTASTAQILGNNESIEPYTSNIYTRRVLSGEFQIVNPHLLKDLTERGLWHEEMKNQIIACNGSIQSIPEIPDDLKQLYKTVWEISQKTVLKMAAERGAFIDQSQSLNIHIAEPNYGKLTSMHFYGWKQGLKTGMYYLRTRPAANPIQFTLNKEKLKDKEKVSKEEEEKERNTAAMVCSLENRDECLMCGS
Regarding B3, in the series “SEC [5]”, the “stoichiometry N” value was 2.
